For 32 compounds, IC50 results are on record in patent publication US20140315886A1, “QUINAZOLINES AS THERAPEUTIC COMPOUNDS AND RELATED METHODS OF USE” (OTSUKA PHARMACEUTICAL CO., LTD., priority 2011, published 2014).

pIC50: −log10 of the molar value.

The test deals with T1, purified STEP46 enzyme (Homo sapiens, UniProt P54829).
T1 sequence (P54829 197-565 limits assumed): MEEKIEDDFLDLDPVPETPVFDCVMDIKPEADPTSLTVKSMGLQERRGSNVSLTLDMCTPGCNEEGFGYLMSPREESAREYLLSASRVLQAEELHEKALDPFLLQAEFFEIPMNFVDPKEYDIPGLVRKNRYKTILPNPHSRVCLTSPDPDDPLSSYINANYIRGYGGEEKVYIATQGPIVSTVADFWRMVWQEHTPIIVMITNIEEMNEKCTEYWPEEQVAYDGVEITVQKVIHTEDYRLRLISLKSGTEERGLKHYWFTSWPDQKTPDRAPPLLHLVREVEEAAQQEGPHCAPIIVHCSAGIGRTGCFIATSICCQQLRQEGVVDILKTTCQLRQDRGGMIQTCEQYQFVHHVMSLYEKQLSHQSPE
The test is described as follows: STEP46 biochemical assay (DiFMUP fluorescence phosphatase assay). As to conditions: DiFMUP 10 μM, read-out: STEP IC50. On the procedure: Serial dilutions of compounds were performed in 100% DMSO and 1 uL of compounds were dispensed into 384-well black polystyrene plates (Corning, N.Y.). Compounds were incubated with 24 uL of buffer containing 50 mM Hepes, 1 mM DTT, 0.02% Brij35, 1 ng/well purified STEP46 enzyme for […] at room temperature. The reaction was initiated by addition of 25 uL of DiFMUP (6,8-difluoro-4-methylumbelliferyl phosphate) (InVitrogen, CA) with a final concentration of 10 μM and incubated at 27° C. for 90 mM Final DMSO concentration is 2%. Plates were read with florescence intensity at excitation/emission of 360/460 nm using a PheraStar plate reader (BMG Labtech, NC).
Data were expressed as percentage (%) inhibition of enzyme activity. 0% inhibition is defined as the RFUs (relative fluorescence units) in the absence of compounds and 100% inhibition is defined as RFUs in the absence of STEP46 enzyme. IC50 values of compounds with inhibitory activity against STEP46 were determined by GraphPad Prism (version 4.03) using four parameter logistic equation. Some compounds act as activators. For compounds showing STEP46 enzymatic activation, data are represented as percentage of inhibition but with negative values at three representative concentrations (25, 50 and 100 uM).
Usually pIC50 stands for the IC50 on a negative log10 scale, so that one unit is a factor of ten. For the compound `COc1ccc2nc(-c3cccnc3)nc(N3CCc4ccc(Cl)cc43)c2c1` [Compound 4], the pIC50 is 5.00 to 6.00.
Under `CCOc1ccc2nc(-c3cccnc3)nc(N3CCc4ccc(Cl)cc43)c2c1` [Compound 5] stands 5.00 to 6.00.
In the case of `COc1ccc2nc(-c3cccnc3)nc(N3CCc4cc(Br)ccc43)c2c1` [Compound 6] it was less than 5.00.
Under `COc1ccc2c(N3CCc4cc(Cl)ccc43)nc(-c3cccnc3)nc2c1` [Compound 12] stands 5.00 to 6.00; under `Clc1ccc2c(c1)CCN2c1nc(-c2cccnc2)nc2cc(Br)ccc12` [Compound 14], 5.00 to 6.00; under `Cc1ccc2c(c1)CCN2c1nc(-c2cccnc2)nc2cc(Br)ccc12` [Compound 16], 5.00 to 6.00.
Regarding `Brc1ccc2nc(-c3cccnc3)nc(N3CCc4ccccc43)c2c1` [Compound 19], the pIC50 was 5.00 to 6.00.
With `Cc1ccc2c(c1)N(c1nc(-c3cccnc3)nc3ccc(Br)cc13)CC2` [Compound 20], the pIC50 is 5.00 to 6.00.
Consider `COc1ccc2c(c1)CCN2c1nc(-c2cccnc2)nc2ccc(Br)cc12` [Compound 21], for which the pIC50 was less than 5.00.
Take `Fc1ccc2c(c1)N(c1nc(-c3cccnc3)nc3ccc(Br)cc13)CC2` [Compound 22]: the pIC50 is 5.00 to 6.00.
Under `Clc1ccc2c(c1)N(c1nc(-c3cccnc3)nc3ccc(Br)cc13)CC2` [Compound 23] stands 5.00 to 6.00; under `COc1ccc2nc(-c3cccnc3)nc(Nc3ccc(F)cn3)c2c1` [Compound 24], 5.00 to 6.00.
In the case of `COc1ccc2nc(-c3cccnc3)nc(Nc3cncc(F)c3)c2c1` [Compound 25] it was 5.00 to 6.00; in that of `COc1ccc2nc(-c3cccnc3)nc(Nc3cc(F)ccn3)c2c1` [Compound 31], 5.00 to 6.00.
On to `COc1ccc2nc(-c3cccnc3)nc(Nc3cccc(F)n3)c2c1` [Compound 32], for which the pIC50 is less than 5.00.
In the case of `COc1ccc2nc(-c3cccnc3)nc(Nc3ccc(F)nc3)c2c1` [Compound 35] it was 5.00 to 6.00.
Take `COc1ccc2nc(-c3cccnc3)nc(Nc3ccc4nc(C)oc4c3)c2c1` [Compound 39]: the pIC50 was 5.00 to 6.00.
Under `CCc1nc2ccc(Nc3nc(-c4cccnc4)nc4ccc(OC)cc34)cc2o1` [Compound 40] stands less than 5.00.
As to `COc1ccc2nc(-c3cccnc3)nc(-n3ccc4cccnc43)c2c1` [Compound 41], the pIC50 is 5.00 to 6.00.
`COc1ccc2nc(-c3cccnc3)nc(Nc3ccnc(F)c3)c2c1` [Compound 43]: the pIC50 is greater than 6.00.
`COc1ccc2nc(-c3cccnc3)nc(Nc3cc(Cl)ccn3)c2c1` [Compound 45, N-(4-chloropyridin-2-yl)-6-methoxy-2-(pyridin-3-yl)quinazolin-4-amine]: the pIC50 was less than 5.00.
Under `COc1ccc2nc(-c3cccnc3)nc(Nc3ccc(C#N)cn3)c2c1` [Compound 46] stands 5.00 to 6.00; under `CCOc1ccc2nc(-c3cccnc3)nc(Nc3cncc(F)c3)c2c1` [Compound 47], 5.00 to 6.00.
In the case of `Fc1cncc(Nc2nc(-c3cccnc3)nc3ccc(Cl)cc23)c1` [Compound 48] it was 5.00 to 6.00.
Take `Fc1cncc(Nc2nc(-c3cccnc3)nc3cc(Cl)ccc23)c1` [Compound 50]: the pIC50 was 5.00 to 6.00.
Regarding `Fc1ccc(Nc2nc(-c3cccnc3)nc3cc(Cl)ccc23)nc1` [Compound 52], the pIC50 was 5.00 to 6.00.
On to `COc1ccc2c(Nc3ccc(C)cn3)nc(-c3cccnc3)nc2c1` [Compound 55], for which the pIC50 is 5.00 to 6.00.
In the case of `CCOc1ccc2nc(-c3cccnc3)nc(Nc3ccc(C)cn3)c2c1` [Compound 56] it was 5.00 to 6.00; in that of `Cc1ccc(Nc2nc(-c3cccnc3)nc3ccc(Cl)cc23)nc1` [Compound 57], 5.00 to 6.00; in that of `Clc1ccc2nc(-c3cccnc3)nc(N3CCc4cccnc43)c2c1` [Compound 61], 5.00 to 6.00.
In the case of `Clc1ccc2c(N3CCc4cccnc43)nc(-c3cccnc3)nc2c1` [Compound 62] it was 5.00 to 6.00.
For `CCOc1ccc2nc(-c3cccnc3)nc(Nc3cncc(C)c3)c2c1` [Compound 65], the pIC50 was 5.00 to 6.00.
